ChEMBL document CHEMBL1201862, “PubChem BioAssay data set” (2004)
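Five compound concentrations were applied to cells in 96-well plates for 48 hours; endpoints were derived by simple linear interpolation of the resulting dose-response curve. GI50 marks 50% less growth.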 The source made the active and inactive calls. Cut-off read from the data, not from the text of the source: active = GI50 up to about 1.1 µM and inactive = higher.

Key:
Experiment in all cases: NCI-60 cell line screen, 48 h
EKVX = test system: EKVX
K562 = test system: K562
MOLT-4 = test system: MOLT-4
HOP-62 = test system: HOP-62
U-251 = test system: U-251
786-0 = test system: 786-0
BT-549 = test system: BT-549
A498 = test system: A498
RPMI-8226 = test system: RPMI-8226
NCI-H522 = test system: NCI-H522
MDA-MB-231 = test system: MDA-MB-231
PC-3 = test system: PC-3
CAKI-1 = test system: CAKI-1
OVCAR-5 = test system: OVCAR-5
SK-MEL-5 = test system: SK-MEL-5
OVCAR-4 = test system: OVCAR-4
T47D = test system: T47D
OVCAR-8 = test system: OVCAR-8
TK-10 = test system: TK-10

Row | Structure (SMILES) | GI50 (EKVX) | GI50 (K562) | GI50 (MOLT-4) | GI50 (HOP-62) | GI50 (U-251) | GI50 (786-0) | GI50 (BT-549) | GI50 (A498) | GI50 (RPMI-8226) | GI50 (NCI-H522) | GI50 (MDA-MB-231) | GI50 (PC-3) | GI50 (CAKI-1) | GI50 (OVCAR-5) | GI50 (SK-MEL-5) | GI50 (OVCAR-4) | GI50 (T47D) | GI50 (OVCAR-8) | GI50 (TK-10)
1 | COc1c(O)ccc2c1CN1CCc3cc4c(cc3C1C2)OCO4 (centres undefined) | 47.8 µM (inactive) | 20 µM (inactive) | 2.43 µM (inactive) | 36.4 µM (inactive) | 29.6 µM (inactive) | 23.9 µM (inactive) | 28.2 µM (inactive) | 20.8 µM (inactive) | 32.4 µM (inactive) | 7.43 µM (inactive) | 29.3 µM (inactive) | 23.4 µM (inactive) | 38.3 µM (inactive) | > 65.5 µM (inactive) | 35 µM (inactive) | 23.1 µM (inactive) | 20.9 µM (inactive) | 33.9 µM (inactive) | 28.9 µM (inactive)
2 | Nc1[nH]nc2ccccc12 | > 100 µM (inactive) | 28.5 µM (inactive) | > 100 µM (inactive) | > 100 µM (inactive) | > 100 µM (inactive) | > 100 µM (inactive) | > 100 µM (inactive) | > 100 µM (inactive) | > 100 µM (inactive) | > 100 µM (inactive) | > 100 µM (inactive) | > 100 µM (inactive) | > 100 µM (inactive) | 60 µM (inactive) | > 100 µM (inactive) | > 100 µM (inactive) | > 100 µM (inactive) | > 100 µM (inactive) | > 100 µM (inactive)
3 | COC(=O)c1c(O)ccc2c1c1c(n2-c2ccc(OC)cc2)C(=O)c2ccccc2C1=O | 16.6 µM (inactive) | 55.2 µM (inactive) | 8.28 µM (inactive) | 20.2 µM (inactive) | 13 µM (inactive) | 15.7 µM (inactive) | 22 µM (inactive) | > 100 µM (inactive) | 9.73 µM (inactive) | 15.1 µM (inactive) | 16.5 µM (inactive) | 20.7 µM (inactive) | 14.1 µM (inactive) | 30.7 µM (inactive) | 44.3 µM (inactive) | 18.6 µM (inactive) | 11.7 µM (inactive) | 12.6 µM (inactive) | 12 µM (inactive)
4 | CCOC(=O)C(Cc1ccc(O)cc1)Nc1nc(=O)c2c(=O)oc(Cl)cc2o1 (centres undefined) | 12.4 µM (inactive) | 3.06 µM (inactive) | 2.81 µM (inactive) | 12.5 µM (inactive) | 7.19 µM (inactive) | 9.12 µM (inactive) | 2.47 µM (inactive) | 18.2 µM (inactive) | 2.67 µM (inactive) | 4.13 µM (inactive) | 6.1 µM (inactive) | 8.93 µM (inactive) | 4.73 µM (inactive) | 17.8 µM (inactive) | 8.15 µM (inactive) | 12.6 µM (inactive) | 4.61 µM (inactive) | 3.39 µM (inactive) | 6.58 µM (inactive)
5 | CNC1Cc2c[nH]c3cccc(c23)C12C=C(C)C(=O)O2 (centres undefined) | > 100 µM (inactive) | > 100 µM (inactive) | > 100 µM (inactive) | > 100 µM (inactive) | > 100 µM (inactive) | > 100 µM (inactive) | > 100 µM (inactive) | > 100 µM (inactive) | > 100 µM (inactive) | > 100 µM (inactive) | > 100 µM (inactive) | > 100 µM (inactive) | > 100 µM (inactive) | > 100 µM (inactive) | > 100 µM (inactive) | > 100 µM (inactive) | > 100 µM (inactive) | > 100 µM (inactive) | > 100 µM (inactive)
6 | CC[C@@H]1CC[C@@H]2[C@H](CC[C@]3(C)[C@@H](O[N+](=O)[O-])CC[C@@H]23)[C@H]1C(C)=O | 16.8 µM (inactive) | 34.8 µM (inactive) | 24.3 µM (inactive) | 46.3 µM (inactive) | 32.4 µM (inactive) | 50.7 µM (inactive) | 50 µM (inactive) | 31 µM (inactive) | 9.02 µM (inactive) | 28.8 µM (inactive) | 11.8 µM (inactive) | 28.9 µM (inactive) | 50.7 µM (inactive) | 64.3 µM (inactive) | 19.7 µM (inactive) | 39 µM (inactive) | 12.9 µM (inactive) | 37.2 µM (inactive) | > 100 µM (inactive)
7 | NC1=Nc2ccccc2Sc2nnc(-c3ccc(Cl)cc3)n21 | 75.3 µM (inactive) | 12.2 µM (inactive) | 13.9 µM (inactive) | 23.7 µM (inactive) | 13.7 µM (inactive) | 24 µM (inactive) | > 100 µM (inactive) | 20.4 µM (inactive) | 87.3 µM (inactive) | 8.18 µM (inactive) | 21.5 µM (inactive) | 16.5 µM (inactive) | 72.4 µM (inactive) | > 100 µM (inactive) | 68.5 µM (inactive) | > 100 µM (inactive) | > 100 µM (inactive) | 26.7 µM (inactive) | 40.8 µM (inactive)
8 | S=C(N/N=C(/c1ccccc1)c1ccccn1)N1CCCCC1 | < 0.0318 µM (active) | < 0.0161 µM (active) | < 0.0135 µM (active) | 0.0785 µM (active) | < 0.0244 µM (active) | < 0.0286 µM (active) | 1.25 µM (inactive) | 0.407 µM (active) | < 0.0202 µM (active) | < 0.0344 µM (active) | 0.0273 µM (active) | < 0.0151 µM (active) | 0.143 µM (active) | 0.0455 µM (active) | < 0.0249 µM (active) | 1.5 µM (inactive) | 0.0927 µM (active) | < 0.0281 µM (active) | 0.114 µM (active)
9 | C[N+](C)(C)C1=NNC2=Nc3ccccc3SC2=C1 | 4.92 µM (inactive) | 17.9 µM (inactive) | 13 µM (inactive) | 22.8 µM (inactive) | 18.6 µM (inactive) | 20.1 µM (inactive) | 28.6 µM (inactive) | 26.4 µM (inactive) | 12.9 µM (inactive) | 15.9 µM (inactive) | 14.6 µM (inactive) | 15.1 µM (inactive) | 32.3 µM (inactive) | 17.7 µM (inactive) | 15.1 µM (inactive) | 19.7 µM (inactive) | 4.11 µM (inactive) | 18.4 µM (inactive) | 37.1 µM (inactive)
10 | N#Cc1c(-c2ccccc2)cc(Nc2ccc(F)cc2)n2c1nc1ccccc12 | 2.09 µM (inactive) | 5.61 µM (inactive) | 7.03 µM (inactive) | 2.83 µM (inactive) | 2.06 µM (inactive) | 2.78 µM (inactive) | 3.24 µM (inactive) | 2.74 µM (inactive) | 3.56 µM (inactive) | 1.95 µM (inactive) | 3.83 µM (inactive) | 1.83 µM (inactive) | 3.2 µM (inactive) | 3.16 µM (inactive) | 1.24 µM (inactive) | 4.62 µM (inactive) | 1.88 µM (inactive) | 3.12 µM (inactive) | 3.55 µM (inactive)
11 | CN/C(=N\N=C1/C(=O)Nc2ccccc21)SCC(=O)c1ccc(Br)cc1 | 22.3 µM (inactive) | 20.5 µM (inactive) | 2.86 µM (inactive) | 5.19 µM (inactive) | 5.21 µM (inactive) | 5.61 µM (inactive) | 68.1 µM (inactive) | 17.4 µM (inactive) | 5.58 µM (inactive) | 15.5 µM (inactive) | 5.81 µM (inactive) | 10.3 µM (inactive) | 28.8 µM (inactive) | 32 µM (inactive) | 22.9 µM (inactive) | 21.5 µM (inactive) | 9.48 µM (inactive) | 8.53 µM (inactive) | 15 µM (inactive)
